# Laboratory results reported in patent US12291519B2, “2-hydroxycycloalkane-1-carbamoyl” (Idorsia Pharmaceuticals Ltd, priority 2019, dated 2025).
# Legend:
# [1] = molecular target: human Gal-1 (hGal-1); experiment: Competitive binding assay: biotinylated hGal-1 binding to microplate-adsorbed asialofetuin (ASF); settings: Activity on hGal-1; binding of biotinylated hGal-1 to ASF-coated plates; mean values
# How it was run: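 Inhibition measured as loss of hGal-1 (biotinylated, 300–1000 ng/mL, wild type or Cys→Ser mutant) binding to adsorbed asialofetuin over 3 h at 4 °C. Bound lectin detected with streptavidin-HRP and ABTS (410 nm, 30–45 min); IC50 values averaged across repeat measurements.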
# [2] = molecular target: human Gal-3 (hGal-3) (Homo sapiens (Human), UniProt P17931); experiment: Competitive binding assay: biotinylated hGal-3 binding to microplate-adsorbed asialofetuin (ASF); settings: Activity on hGal-3; binding of biotinylated hGal-3 to ASF-coated plates; mean values
# How it was run: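 Serially diluted compounds competed with biotinylated human Gal-3 for binding to plate-adsorbed asialofetuin over 3 h at 4 °C. Bound Gal-3 was detected with streptavidin-peroxidase (80 ng/mL, 1 h, 4 °C) and ABTS substrate. IC50 values are means of several measurements.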
# human Gal-3 (hGal-3), sequence (P17931 whole entry): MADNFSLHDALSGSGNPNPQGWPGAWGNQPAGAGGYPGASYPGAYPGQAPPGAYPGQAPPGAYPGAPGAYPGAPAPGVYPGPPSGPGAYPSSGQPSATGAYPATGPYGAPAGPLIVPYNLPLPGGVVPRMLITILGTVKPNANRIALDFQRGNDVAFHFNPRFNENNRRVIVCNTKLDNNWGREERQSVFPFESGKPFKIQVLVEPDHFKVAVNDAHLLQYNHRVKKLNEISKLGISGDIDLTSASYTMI
# human Gal-1 (hGal-1), sequence (P09382 2-135 limits assumed): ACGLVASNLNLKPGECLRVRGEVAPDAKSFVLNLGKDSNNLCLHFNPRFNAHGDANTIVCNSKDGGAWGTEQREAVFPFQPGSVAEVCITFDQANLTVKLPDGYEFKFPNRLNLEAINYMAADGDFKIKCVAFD
IC50 [1] [nM],IC50 [2] [nM],Structure (SMILES)
1370,232,"CO[C@@H]1[C@@H](n2cc(-c3ccc(Cl)c(OC(F)(F)F)c3)nn2)[C@@H](O)[C@@H](CO)O[C@H]1C(=O)N(c1cc(Cl)cc(C#N)c1)[C@H]1CCCC[C@@H]1O [Example 185, (2R,3R,4S,5R,6R)-4-(4-(4-chloro-3-(trifluoromethoxy)phenyl)-1H-1,2,3-triazol-1-yl)-N-(3-chloro-5-cyanophenyl)-5-hydroxy-N-((1S,2S)-2-hydroxycyclohexyl)-6-(hydroxymethyl)-3-methoxytetrahydro-2H-pyran-2-carboxamide]"
210,17,"CO[C@@H]1[C@@H](n2cc(-c3ccc(Cl)c(Cl)c3)nn2)[C@@H](O)[C@@H](CO)O[C@H]1C(=O)N(c1cc(Cl)cc(C#N)c1)[C@H]1CCCC[C@@H]1O [Example 186, (2R,3R,4S,5R,6R)-N-(3-chloro-5-cyanophenyl)-4-(4-(3,4-dichlorophenyl)-1H-1,2,3-triazol-1-yl)-5-hydroxy-N-((1S,2S)-2-hydroxycyclohexyl)-6-(hydroxymethyl)-3-methoxytetrahydro-2H-pyran-2-carboxamide]"
359,37,"CO[C@@H]1[C@@H](n2cc(-c3ccc(Cl)c(Cl)c3)nn2)[C@@H](O)[C@@H](CO)O[C@H]1C(=O)N(c1cc(F)cc(C#N)c1)[C@H]1CCCC[C@@H]1O [Example 187, (2R,3R,4S,5R,6R)-N-(3-cyano-5-fluorophenyl)-4-(4-(3,4-dichlorophenyl)-1H-1,2,3-triazol-1-yl)-5-hydroxy-N-((1S,2S)-2-hydroxycyclohexyl)-6-(hydroxymethyl)-3-methoxytetrahydro-2H-pyran-2-carboxamide]"
257,11,"CO[C@@H]1[C@@H](n2cc(-c3ccc(Cl)c(Cl)c3)nn2)[C@@H](O)[C@@H](CO)O[C@H]1C(=O)N(c1cc(Cl)cc(Cl)c1)[C@H]1CCCC[C@@H]1O [Example 189, (2R,3R,4S,5R,6R)-N-(3,5-dichlorophenyl)-4-(4-(3,4-dichlorophenyl)-1H-1,2,3-triazol-1-yl)-5-hydroxy-N-((1S,2S)-2-hydroxycyclohexyl)-6-(hydroxymethyl)-3-methoxytetrahydro-2H-pyran-2-carboxamide]"
239,17,"CO[C@@H]1[C@@H](n2cc(-c3cc(C)cc(F)c3)nn2)[C@@H](O)[C@@H](CO)O[C@H]1C(=O)N(c1cc(Cl)cc(C#N)c1)[C@H]1CCCC[C@@H]1O [Example 190, (2R,3R,4S,5R,6R)-N-(3-chloro-5-cyanophenyl)-4-(4-(3-fluoro-5-methylphenyl)-1H-1,2,3-triazol-1-yl)-5-hydroxy-N-((1S,2S)-2-hydroxycyclohexyl)-6-(hydroxymethyl)-3-methoxytetrahydro-2H-pyran-2-carboxamide]"
1140,41,"CO[C@@H]1[C@@H](n2cc(-c3ccc4nc(C)sc4c3)nn2)[C@@H](O)[C@@H](CO)O[C@H]1C(=O)N(c1cc(Cl)cc(Cl)c1)[C@H]1CCCC[C@@H]1O [Example 191, (2R,3R,4S,5R,6R)-N-(3,5-dichlorophenyl)-5-hydroxy-N-((1S,2S)-2-hydroxycyclohexyl)-6-(hydroxymethyl)-3-methoxy-4-(4-(2-methylbenzo[d]thiazol-6-yl)-1H-1,2,3-triazol-1-yl)tetrahydro-2H-pyran-2-carboxamide]"
1140,21,"CO[C@@H]1[C@@H](n2cc(-c3ccc(F)c4ccccc34)nn2)[C@@H](O)[C@@H](CO)O[C@H]1C(=O)N(c1cc(Cl)cc(Cl)c1)[C@H]1CCCC[C@@H]1O [Example 192, (2R,3R,4S,5R,6R)-N-(3,5-dichlorophenyl)-4-(4-(4-fluoronaphthalen-1-yl)-1H-1,2,3-triazol-1-yl)-5-hydroxy-N-((1S,2S)-2-hydroxycyclohexyl)-6-(hydroxymethyl)-3-methoxytetrahydro-2H-pyran-2-carboxamide]"
605,143,"CO[C@@H]1[C@@H](n2cc(-c3nc(Cl)cs3)nn2)[C@@H](O)[C@@H](CO)O[C@H]1C(=O)N(c1cccc(F)c1F)[C@H]1CCCC[C@@H]1O [Example 193, (2R,3R,4S,5R,6R)-4-(4-(4-chlorothiazol-2-yl)-1H-1,2,3-triazol-1-yl)-N-(2,3-difluorophenyl)-5-hydroxy-N-((1S,2S)-2-hydroxycyclohexyl)-6-(hydroxymethyl)-3-methoxytetrahydro-2H-pyran-2-carboxamide]"
2740,11,"CO[C@@H]1[C@@H](n2cc(-c3cc(F)c(F)c(F)c3)nn2)[C@@H](O)[C@@H](CO)O[C@H]1C(=O)N(c1ccccn1)[C@H]1CCCC[C@@H]1O [Example 194, (2R,3R,4S,5R,6R)-5-hydroxy-N-((1S,2S)-2-hydroxycyclohexyl)-6-(hydroxymethyl)-3-methoxy-N-(pyridin-2-yl)-4-(4-(3,4,5-trifluorophenyl)-1H-1,2,3-triazol-1-yl)tetrahydro-2H-pyran-2-carboxamide]"
96,9,"O=C(O)CO[C@@H]1[C@@H](n2cc(-c3cc(F)c(F)c(F)c3)nn2)[C@@H](O)[C@@H](CO)O[C@H]1C(=O)N(c1cc(Cl)cc(Cl)c1)[C@H]1CCCC[C@@H]1O [Example 195, 2-(((2R,3R,4S,5R,6R)-2-((3,5-dichlorophenyl)((1S,2S)-2-hydroxycyclohexyl)carbamoyl)-5-hydroxy-6-(hydroxymethyl)-4-(4-(3,4,5-trifluorophenyl)-1H-1,2,3-triazol-1-yl)tetrahydro-2H-pyran-3-yl)oxy)acetic acid]"
6830,97,"CO[C@@H]1[C@@H](n2cc(-c3cc(F)c(F)c(F)c3)nn2)[C@@H](O)[C@@H](CO)O[C@H]1C(=O)N(c1ccc2ccccc2c1)[C@H]1CCCC[C@@H]1O [Example 197, (2R,3R,4S,5R,6R)-5-hydroxy-N-((1S,2S)-2-hydroxycyclohexyl)-6-(hydroxymethyl)-3-methoxy-N-(naphthalen-2-yl)-4-(4-(3,4,5-trifluorophenyl)-1H-1,2,3-triazol-1-yl)tetrahydro-2H-pyran-2-carboxamide]"
> 100000,117,"CO[C@@H]1[C@@H](n2cc(-c3cc(F)c(F)c(F)c3)nn2)[C@@H](O)[C@@H](CO)O[C@H]1C(=O)N(c1cccc2ccccc12)[C@H]1CCCC[C@@H]1O [Example 198, (2R,3R,4S,5R,6R)-5-hydroxy-N-((1S,2S)-2-hydroxycyclohexyl)-6-(hydroxymethyl)-3-methoxy-N-(naphthalen-1-yl)-4-(4-(3,4,5-trifluorophenyl)-1H-1,2,3-triazol-1-yl)tetrahydro-2H-pyran-2-carboxamide]"
18000,321,"CO[C@@H]1[C@@H](n2cc(-c3cc(F)c(F)c(F)c3)nn2)[C@@H](O)[C@@H](CO)O[C@H]1C(=O)N(c1cc(C)n(C)n1)[C@H]1CCCC[C@@H]1O [Example 199, (2R,3R,4S,5R,6R)-N-(1,5-dimethyl-1H-pyrazol-3-yl)-5-hydroxy-N-((1S,2S)-2-hydroxycyclohexyl)-6-(hydroxymethyl)-3-methoxy-4-(4-(3,4,5-trifluorophenyl)-1H-1,2,3-triazol-1-yl)tetrahydro-2H-pyran-2-carboxamide]"
158,8,"CO[C@@H]1[C@@H](n2cc(-c3ccc(C)c(F)c3)nn2)[C@@H](O)[C@@H](CO)O[C@H]1C(=O)N(c1cc(Br)cc(C#N)c1)[C@H]1CCCC[C@@H]1O [Example 200, (2R,3R,4S,5R,6R)-N-(3-bromo-5-cyanophenyl)-4-(4-(3-fluoro-4-methylphenyl)-1H-1,2,3-triazol-1-yl)-5-hydroxy-N-((1S,2S)-2-hydroxycyclohexyl)-6-(hydroxymethyl)-3-methoxytetrahydro-2H-pyran-2-carboxamide]"
242,20,"CO[C@@H]1[C@@H](n2cc(-c3ccc(Cl)cc3)nn2)[C@@H](O)[C@@H](CO)O[C@H]1C(=O)N(c1cc(Cl)cc(C#N)c1)[C@H]1CCCC[C@@H]1O [Example 201, (2R,3R,4S,5R,6R)-N-(3-chloro-5-cyanophenyl)-4-(4-(4-chlorophenyl)-1H-1,2,3-triazol-1-yl)-5-hydroxy-N-((1S,2S)-2-hydroxycyclohexyl)-6-(hydroxymethyl)-3-methoxytetrahydro-2H-pyran-2-carboxamide]"
341,21,"CO[C@@H]1[C@@H](n2cc(-c3ccc(Br)cc3)nn2)[C@@H](O)[C@@H](CO)O[C@H]1C(=O)N(c1cc(Cl)cc(C#N)c1)[C@H]1CCCC[C@@H]1O [Example 202, (2R,3R,4S,5R,6R)-4-(4-(4-bromophenyl)-1H-1,2,3-triazol-1-yl)-N-(3-chloro-5-cyanophenyl)-5-hydroxy-N-((1S,2S)-2-hydroxycyclohexyl)-6-(hydroxymethyl)-3-methoxytetrahydro-2H-pyran-2-carboxamide]"
678,24,CO[C@@H]1[C@@H](n2cc(-c3cc(F)c(N4CCOCC4)c(F)c3)nn2)[C@@H](O)[C@@H](CO)O[C@H]1C(=O)N(c1cc(Cl)cc(Cl)c1)[C@H]1CCCC[C@@H]1O [Example 203]
273,21,"CO[C@@H]1[C@@H](n2cc(-c3cc(F)c(NCCCO)c(F)c3)nn2)[C@@H](O)[C@@H](CO)O[C@H]1C(=O)N(c1cc(Cl)cc(Cl)c1)[C@H]1CCCC[C@@H]1O [Example 204, (2R,3R,4S,5R,6R)—N-(3,5-dichlorophenyl)-4-(4-(3,5-difluoro-4-((3-hydroxypropyl)amino)phenyl)-1H-1,2,3-triazol-1-yl)-5-hydroxy-N-((1S,2S)-2-hydroxycyclohexyl)-6-(hydroxymethyl)-3-methoxytetrahydro-2H-pyran-2-carboxamide]"
